Experimental data reported in patent US20050154042A1, “N-alkyl pyrroles as HMG-CoA reductase inhibitors” (priority 2003, published 2005).
Counter-ions that a name gives are not always drawn.

| melting point | Structure (SMILES) |
| --- | --- |
| 255 to 256 °C | CC(C)n1c(/C=C/[C@@H](O)C[C@@H](O)CC(=O)O)c(-c2ccc(F)cc2)c(-c2ccccc2)c1C(=O)Nc1ccc(S(N)(=O)=O)cc1 (as salt: sodium) [Example 5, (3R,5S)-7-[3-(4-Fluoro-phenyl)-1-isopropyl-4-phenyl-5-(4-sulfamoyl-phenylcarbamoyl)-1H-pyrrol-2-yl]-3,5-dihydroxy-hept-6-enoic Acid Sodium Salt] |
| 240 to 242 °C | CC(C)n1c(CCC(O)C[C@@H](O)CC(=O)O)c(-c2ccc(F)cc2)c(-c2ccccc2)c1C(=O)Nc1ccc(F)cc1 (stereo partly drawn) (as salt: sodium) [Example 8, (3R)-7-[3-(4-Fluoro-phenyl)-5-(4-fluoro-phenylcarbamoyl)-1-isopropyl-4-phenyl-1H-pyrrol-2-yl]-3,5-dihydroxy-heptanoic Acid Sodium Salt] |
| 218 to 220 °C | CC(C)n1c(CC[C@@H](O)C[C@@H](O)CC(=O)O)c(-c2ccc(F)cc2)c(-c2ccccc2)c1C(=O)NCc1ccc(F)cc1 (as salt: sodium) [Example 9, (3R,5R)-7-[5-(4-Fluoro-benzylcarbamoyl)-3-(4-fluoro-phenyl)-1-isopropyl-4-phenyl-1H-pyrrol-2-yl]-3,5-dihydroxy-heptanoic Acid Sodium Salt] |
| 221 to 223 °C | CC(C)n1c(/C=C/[C@@H](O)C[C@@H](O)CC(=O)O)c(-c2ccc(F)cc2)c(-c2ccccc2)c1C(=O)NCc1ccc(F)cc1 (as salt: sodium) [Example 10, (3R,5S)-7-[5-(4-Fluoro-benzylcarbamoyl)-3-(4-fluoro-phenyl)-1-isopropyl-4-phenyl-1H-pyrrol-2-yl]-3,5-dihydroxy-hept-6-enoic Acid Sodium Salt] |
| 261 to 263 °C | CC(C)n1c(CC[C@@H](O)C[C@@H](O)CC(=O)O)c(-c2ccc(F)cc2)c(-c2ccc(F)cc2)c1C(=O)Nc1ccc(S(N)(=O)=O)cc1 (as salt: sodium) [Example 11, (3R,5R)-7-[3,4-Bis-(4-fluoro-phenyl)-1-isopropyl-5-(4-sulfamoyl-phenylcarbamoyl)-1H-pyrrol-2-yl]-3,5-dihydroxy-heptanoic Acid Sodium Salt] |
| 248 to 250 °C | CC(C)n1c(CC[C@@H](O)C[C@@H](O)CC(=O)O)c(-c2ccc(F)cc2)c(-c2ccc(F)cc2)c1C(=O)Nc1ccc(CC(N)=O)cc1 (as salt: sodium) [Example 13] |
| 220 to 222 °C | CC(C)n1c(/C=C/[C@@H](O)C[C@@H](O)CC(=O)O)c(-c2ccc(F)cc2)c(-c2ccc(F)cc2)c1C(=O)Nc1ccc(CC(N)=O)cc1 (as salt: sodium) [Example 14, (3R,5S)-7-[5-(4-Carbamoylmethyl-phenylcarbamoyl)-3,4-bis-(4-fluoro-phenyl)-1-isopropyl-1H-pyrrol-2-yl]-3,5-dihydroxy-hept-6-enoic Acid Sodium Salt] |
| 234 to 236 °C (dec.) | CC(C)n1c(CC[C@@H](O)C[C@@H](O)CC(=O)O)c(-c2ccc(F)cc2)c(-c2ccccc2)c1C(=O)NCc1nc2ccccc2[nH]1 (as salt: sodium) [Example 92] |
| 239 to 241 °C (dec.) | CC(C)n1c(CC[C@@H](O)C[C@@H](O)CC(=O)O)c(-c2ccc(F)cc2)c(-c2ccccc2)c1C(=O)NCc1cn2c(n1)CCCC2 (as salt: sodium) [Example 93, (3R,5R)-7-[3-(4-Fluorophenyl)-1-isopropyl-5-[(5,6,7,8-tetrahydro-imidazo[1,2-a]pyridin-2-yl Methyl)carbamoyl]-4-phenyl-1H-pyrrol-2-yl]-3,5-dihydroxyheptanoic Acid Sodium Salt] |
| 213 to 215 °C (dec.) | Cc1c[nH]c(CNC(=O)c2c(-c3ccccc3)c(-c3ccc(F)cc3)c(CC[C@@H](O)C[C@@H](O)CC(=O)O)n2C(C)C)n1 (as salt: sodium) [Example 95] |
| 184 to 188 °C | Cc1cnc(CNC(=O)c2c(-c3ccccc3)c(-c3ccc(F)cc3)c(CC[C@@H](O)C[C@@H](O)CC(=O)O)n2C(C)C)cn1 (as salt: sodium) [Example 97, (3R,5R)-7-[3-(4-Fluorophenyl)-1-isopropyl-5-[(5-methylpyrazin-2-ylmethyl)carbamoyl]-4-phenyl-1H-pyrrol-2-yl]-3,5-dihydroxyheptanoic Acid Sodium Salt] |
| 239 to 241 °C | CC(C)n1c(/C=C/[C@@H](O)C[C@@H](O)CC(=O)[O-])c(-c2ccc(F)cc2)c(-c2ccccc2)c1C(=O)Nc1ccccc1.[Na+] [Example 2, (3R,5S)-7-[3-(4-Fluoro-phenyl)-1-isopropyl-4-phenyl-5-phenylcarbamoyl-1H-pyrrol-2-yl]-3,5-dihydroxy-hept-6-enoic Acid Sodium Salt] |
| 240 to 242 °C | CC(C)n1c(CCC(O)C[C@@H](O)CC(=O)[O-])c(-c2ccc(F)cc2)c(-c2ccccc2)c1C(=O)Nc1ccccc1.[Na+] (stereo partly drawn) [Example 3, (3R)-7-[3-(4-Fluoro-phenyl)-1-isopropyl-4-phenyl-5-phenylcarbamoyl-1H-pyrrol-2-yl]-3,5-dihydroxy-heptanoic Acid Sodium Salt] |
| 265 to 267 °C | CC(C)n1c(CC[C@@H](O)C[C@@H](O)CC(=O)[O-])c(-c2ccc(F)cc2)c(-c2ccccc2)c1C(=O)Nc1ccc(S(N)(=O)=O)cc1.[Na+] [Example 4, (3R,5R)-7-[3-(4-Fluoro-phenyl)-1-isopropyl-4-phenyl-5-(4-sulfamoyl-phenylcarbamoyl)-1H-pyrrol-2-yl]-3,5-dihydroxy-heptanoic Acid Sodium Salt] |
| 55 to 57 °C | COC(=O)C[C@H]1C[C@@H](CCc2c(-c3ccc(F)cc3)c(-c3ccc(F)cc3)cn2C(C)C)OC(C)(C)O1 [Example 24, (4R,6R)-(6-{2-[3,4-Bis-(4-fluoro-phenyl)-1-isopropyl-1H-pyrrol-2-yl]-ethyl}-2,2-dimethyl-[1,3]dioxan-4-yl)-acetic Acid Methyl Ester] |
| 210 to 214 °C | CC(C)n1c(/C=C/[C@@H](O)C[C@@H](O)CC(=O)[O-])c(-c2ccc(F)cc2)c(-c2ccc(F)cc2)c1C(=O)Nc1cccc(C(=O)N(C)C)c1.[Na+] [Example 68, trans-(3R,5S)-7-[5-(3-dimethylcarbamoyl-phenylcarbamoyl)-3,4-bis-(4-fluoro-phenyl)-1-isopropyl-1H-pyrrol-yl]-3,5-dihydroxy-hept-6-enoate Sodium Salt] |
| 200 to 205 °C | CC(C)n1c(CC[C@@H](O)C[C@@H](O)CC(=O)[O-])c(-c2ccc(F)cc2)c(-c2ccc(F)cc2)c1C(=O)NCc1ccccn1.[Na+] [Example 69, (3R,5R)-7-{3,4-bis-(4-fluoro-phenyl)-1-isopropyl-5-[(pyridin-2-ylmethyl)-carbamoyl]-1H-pyrrol-2-yl}-3,5-dihydroxy-heptanoate Sodium Salt] |
| 172 to 175 °C | CC(C)n1c(CC[C@@H](O)C[C@@H](O)CC(=O)[O-])c(-c2ccc(F)cc2)c(-c2ccc(F)cc2)c1C(=O)NCc1cccc(S(=O)(=O)N(C)C)c1.[Na+] [Example 71, (3R,5R)-7-[5-(3-dimethylsulfamoyl-benzylcarbamoyl)-3,4-bis-(4-fluoro-phenyl)-1-isopropyl-1H-pyrrol-2-yl]-3,5-dihydroxy-heptanoate Sodium Salt] |
| 200 to 203 °C | Cc1cc(CNC(=O)c2c(-c3ccccc3)c(-c3ccc(F)cc3)c(/C=C/[C@@H](O)C[C@@H](O)CC(=O)[O-])n2C(C)C)no1.[Na+] [Example 79, trans-(3R,5 S)-7-{3-(4-fluoro-phenyl)-1-isopropyl-5-[(5-methyl-isoxazole-3-yl Methyl)-carbamoyl]-4-phenyl-1H-pyrrol-2-yl}-3,5-dihydroxy-hept-6-enoate Sodium Salt] |
| 220 to 223 °C | CC(C)n1c(CC[C@@H](O)C[C@@H](O)CC(=O)[O-])c(-c2ccc(F)cc2)c(-c2ccc(F)cc2)c1C(=O)Nc1ccc(C(=O)N(C)C)cc1.[Na+] [Example 85, (3R,5R)-7-[5-(4-dimethylcarbamoyl-phenylcarbamoyl)-3,4-bis-(4-fluoro-phenyl)-1-isopropyl-1H-pyrrol-yl]-3,5-dihydroxy-heptanoate Sodium Salt] |
| 197 to 200 °C | CC(C)n1c(CC[C@@H](O)C[C@@H](O)CC(=O)[O-])c(-c2ccc(F)cc2)c(-c2ccccc2)c1C(=O)NCCc1ccccc1.[Na+] [Example 91, (3R,5R)-7-[3-(4-Fluorophenyl)-1-isopropyl-5-(phenethylcarbamoyl)-4-phenyl-1H-pyrrol-2-yl]-3,5-dihydroxyheptanoic Acid Sodium Salt] |
| 256 °C (dec.) | CC(C)n1c(C=C[C@H](O)C[C@@H](O)CC(=O)[O-])c(-c2ccc(F)cc2)c(-c2ccc(F)cc2)c1C(=O)Nc1ccc(CS(C)(=O)=O)cc1.[Na+] [Example 106, (3R,5R)-7-[3,4-Bis-(4-fluoro-phenyl)-1-isopropyl-5-(4-methanesulfonylmethyl-phenyl-carbamoyl)-1H-pyrrol-2-yl]-3,5-dihydroxy-hept-6-enoic Acid, Sodium Salt] |
| 156 to 205 °C | CC(C)n1c(CC[C@@H](O)C[C@@H](O)CC(=O)[O-])c(-c2ccc(F)cc2)c(-c2ccccc2)c1C(=O)Nc1cccc(C(=O)N(C)C)c1.[Na+] [Example 108, (3R,5R)-7-[5-(3-Dimethylcarbamoyl-phenylcarbamoyl)-3-(4-fluoro-phenyl)-1-isopropyl-4-phenyl-1H-pyrrol-2-yl]-3,5-dihydroxy-heptanoic Acid, Sodium Salt] |
| 207 to 209 °C | COc1cccc(CNC(=O)c2c(-c3ccc(F)cc3)c(-c3ccc(F)cc3)c(CC[C@@H](O)C[C@@H](O)CC(=O)[O-])n2C(C)C)c1.[Na+] [Example 110, (3R,5R)-7-[3,4-Bis-(4-fluoro-phenyl)-1-isopropyl-5-(3-methoxy-benzylcarbamoyl)-1H-pyrrol-2-yl]-3,5-dihydroxy-heptanoic Acid, Sodium Salt] |
| 189 to 193 °C | CC(N)=CC(=O)CNC(=O)c1c(-c2ccccc2)c(-c2ccc(F)cc2)c(CC[C@@H](O)C[C@@H](O)CC(=O)[O-])n1C(C)C.[Na+] [Example 113, (3R,5R)-7-[5-(4-Amino-2-oxo-pent-3-enylcarbamoyl)-3-(4-fluoro-phenyl)-1-isopropyl-4-phenyl-1H-pyrrol-2-yl]-3,5-dihydroxy-heptanoic Acid, Sodium Salt] |
